Assay results: patent US6984754B1, “Aliphatic amino carboxylic and amino phosphonic acids amino nitriles and amino tetrazoles as cellular rescue agents” (University of Saskatchewan Technologies Inc., priority 1998, dated 2006)

Assays:
[1] = tested on: cerebellar granule cells (CGC); test: Antiapoptotic capacity (rescue) in cerebellar granule cells induced into apoptosis by cytosine arabinoside (CGC assay); type: cell-based, Wistar rat
Source text: In Vitro Protocol for Assessing the Antiapoptotic Capacity of Various Compounds in Cerebellar Granule Cells
Cultures of cerebellar granule cells (CGC) can be induced into apoptosis by the addition of a high concentration of cytosine arabinoside (AraC). It has been shown that this is a p53 dependent apoptosis. We have measured the antiapoptotic effect of some amino acids, amino esters, amino phosphonic acids, amino nitriles and amino tetrazoles using this system.
Cultures of CGC were obtained from 6-8 day old Wistar rat pups. Cultures were grown on glass in 35 mm petri dishes for three days and then used for experiments. Aliquots (20 ul) of drug solutions (AraC, anti-apoptotic drugs, drug vehicles) were added to the medium of the culture. 24 Hours later the cultures were fixed with FAM, and stained with bis-benzamide. Normal and apoptotic nuclei were counted to a total of 90-120 cells per culture.

[2] = overall over 10^−6, 10^−9, 10^−12 M

Row | Compound | melting point [°C] | Rescue by Amino Nitriles in the CGC Assay, 10^−9 M ([1]; compound 10^−9 M, AraC 300 uM-induced apoptosis, 24 hours) | Rescue by Amino Nitriles in the CGC Assay, 10^−12 M ([1]; compound 10^−12 M, AraC 300 uM-induced apoptosis, 24 hours) | Rescue by Amino Nitriles in the CGC Assay, Rescue (overall yes/no) [1, 2] | Rescue by Amino Acids and Esters in the CGC Assay, Rescue (overall yes/no) [1, 2]
1 | CCCCC[C@H](C)NCC#N.Cl [S-2-Heptyl (Acetonitriles), (S)-2-(2-Heptylamino)acetonitrile hydrochloride] | 140 | R | R | yes | –
2 | CCCCC[C@H](C)NCCC(=O)O.Cl [S-2-Heptyl (B-Alanines), (S)-3-(2-Heptylamino)propionic acid hydrochloride] | 56 to 58 | – | – | – | no
3 | CCCCC[C@H](C)NCCC#N.Cl [S-2-heptyl (Propionitriles), (S)-3-(2-Heptylamino)propionitrile hydrochloride] | 133 to 134 | – | – | no | –
4 | CCC(C)(C)NCCC#N.Cl [tert-Amyl (Propionitriles), 3-(t-Amylamino)propionitrile hydrochloride] | 199 to 200 | – | – | no | –
